Tests used:
[1] = test system: MCF7; assay: cells; details: Homo sapiens, MCF7, 72 h
Description: Antiproliferative activity against human MCF7 cells assessed as cell growth inhibition after 72 hrs by MTT assay

[2] = test system: SH-SY5Y; assay: Induction of apoptosis in human SH-SY5Y cells assessed as reduction in mitochondrial membrane potential at 2.5 uM after 24 hrs by JC-1 staining based flow cytometry (reference value: 5.1%); assay type: functional; set-up: scale not given: the % may be the effect or the level left
[3] = test system: SH-SY5Y; assay: Induction of apoptosis in human SH-SY5Y cells assessed as late apoptotic cells at 2.5 uM after 24 hrs by Annexin V-FITC/propidium iodide staining based flow cytometry (reference value: 5.7%); assay type: functional
[4] = test system: SH-SY5Y; assay: Induction of apoptosis in human SH-SY5Y cells assessed as viable cells at 2.5 uM after 24 hrs by Annexin V-FITC/propidium iodide staining based flow cytometry (reference value: 88.2%); assay type: functional; details: read-out: Activity
[5] = test system: SH-SY5Y; assay: Induction of apoptosis in human SH-SY5Y cells assessed as late apoptotic cells at 10 uM after 24 hrs by Annexin V-FITC/propidium iodide staining based flow cytometry (reference value: 5.7%); assay type: functional
[6] = Antiproliferative activity against human EC109 cells assessed as cell growth inhibition after 72 hrs by MTT assay; assay type: functional, cell-based; details: ECa-109, 72 h
[7] = target: Lysine-specific histone demethylase 1A (Homo sapiens, UniProt O60341); assay: Inhibition of recombinant LSD1 (157 to 852 amino acids) (unknown origin) expressed in Escherichia coli BL21(DE) using H3K4me2 substrate
[8] = test system: SH-SY5Y; assay: Induction of apoptosis in human SH-SY5Y cells assessed as necrotic cells at 20 uM after 24 hrs by Annexin V-FITC/propidium iodide staining based flow cytometry (reference value: 2.9%); assay type: functional
[9] = test system: SH-SY5Y; assay: Cell cycle arrest in human SH-SY5Y assessed as accumulation at G2/M phase at 1.25 uM after 24 hrs by propidium iodide staining based flow cytometry (reference value: 14.53%); assay type: functional
[10] = test system: SH-SY5Y; assay: Induction of apoptosis in human SH-SY5Y cells after 24 hrs by Annexin V-FITC/propidium iodide staining based flow cytometry; assay type: functional, cell-based
[11] = test system: SH-SY5Y; assay: Induction of apoptosis in human SH-SY5Y cells assessed as viable cells at 10 uM after 24 hrs by Annexin V-FITC/propidium iodide staining based flow cytometry (reference value: 88.2%); assay type: functional; details: read-out: Activity
[12] = test system: SH-SY5Y; assay: Cell cycle arrest in human SH-SY5Y assessed as accumulation at S phase at 5 uM after 24 hrs by propidium iodide staining based flow cytometry (reference value: 21.34%); assay type: functional
[13] = test system: SH-SY5Y; assay: Antiproliferative activity against human SH-SY5Y cells assessed as cell growth inhibition after 72 hrs by MTT assay; assay type: functional, cell-based
[14] = test system: SH-SY5Y; assay: Induction of apoptosis in human SH-SY5Y cells assessed as necrotic cells at 2.5 uM after 24 hrs by Annexin V-FITC/propidium iodide staining based flow cytometry (reference value: 2.9%); assay type: functional
[15] = test system: SH-SY5Y; assay: Induction of apoptosis in human SH-SY5Y cells assessed as necrotic cells at 10 uM after 24 hrs by Annexin V-FITC/propidium iodide staining based flow cytometry (reference value: 2.9%); assay type: functional
[16] = test system: SH-SY5Y; assay: Induction of apoptosis in human SH-SY5Y cells assessed as reduction in mitochondrial membrane potential at 10 uM after 24 hrs by JC-1 staining based flow cytometry (reference value: 5.1%); assay type: functional; set-up: scale not given: the % may be the effect or the level left
[17] = test system: SH-SY5Y; assay: Induction of apoptosis in human SH-SY5Y cells assessed as reduction in mitochondrial membrane potential after 24 hrs by JC-1 staining based flow cytometry; assay type: functional, cell-based
[18] = test system: SH-SY5Y; assay: Induction of apoptosis in human SH-SY5Y cells assessed as early apoptotic cells at 10 uM after 24 hrs by Annexin V-FITC/propidium iodide staining based flow cytometry (reference value: 3.3%); assay type: functional
[19] = test system: SH-SY5Y; assay: Cell cycle arrest in human SH-SY5Y assessed as accumulation at G0/G1 phase at 1.25 uM after 24 hrs by propidium iodide staining based flow cytometry (reference value: 61.80%); assay type: functional
[20] = test system: SH-SY5Y; assay: Cell cycle arrest in human SH-SY5Y assessed as accumulation at G0/G1 phase at 5 uM after 24 hrs by propidium iodide staining based flow cytometry (reference value: 61.80%); assay type: functional
[21] = test system: SH-SY5Y; assay: Induction of apoptosis in human SH-SY5Y cells assessed as early apoptotic cells at 20 uM after 24 hrs by Annexin V-FITC/propidium iodide staining based flow cytometry (reference value: 3.3%); assay type: functional
[22] = test system: SH-SY5Y; assay: Induction of apoptosis in human SH-SY5Y cells assessed as early apoptotic cells at 1.25 uM after 24 hrs by Annexin V-FITC/propidium iodide staining based flow cytometry (reference value: 3.3%); assay type: functional
[23] = Antiproliferative activity against human MGC803 cells assessed as cell growth inhibition after 72 hrs by MTT assay; assay type: functional, cell-based; details: MGC-803, 72 h
[24] = test system: SH-SY5Y; assay: Induction of apoptosis in human SH-SY5Y cells assessed as viable cells at 20 uM after 24 hrs by Annexin V-FITC/propidium iodide staining based flow cytometry (reference value: 88.2%); assay type: functional; details: read-out: Activity
[25] = Antiproliferative activity against human U87 cells assessed as cell growth inhibition after 72 hrs by MTT assay; assay type: functional, cell-based, U-87MG ATCC; details: U-87 MG
[26] = test system: SH-SY5Y; assay: Induction of apoptosis in human SH-SY5Y cells assessed as necrotic cells at 1.25 uM after 24 hrs by Annexin V-FITC/propidium iodide staining based flow cytometry (reference value: 2.9%); assay type: functional
[27] = test system: SH-SY5Y; assay: Induction of apoptosis in human SH-SY5Y cells assessed as necrotic cells at 5 uM after 24 hrs by Annexin V-FITC/propidium iodide staining based flow cytometry (reference value: 2.9%); assay type: functional
[28] = test system: SH-SY5Y; assay: Induction of apoptosis in human SH-SY5Y cells assessed as late apoptotic cells at 1.25 uM after 24 hrs by Annexin V-FITC/propidium iodide staining based flow cytometry (reference value: 5.7%); assay type: functional
[29] = test system: SH-SY5Y; assay: Cell cycle arrest in human SH-SY5Y assessed as accumulation at S phase at 1.25 uM after 24 hrs by propidium iodide staining based flow cytometry (reference value: 21.34%); assay type: functional
[30] = test system: SH-SY5Y; assay: Cell cycle arrest in human SH-SY5Y assessed as accumulation at G2/M phase at 5 uM after 24 hrs by propidium iodide staining based flow cytometry (reference value: 14.53%); assay type: functional
[31] = test system: SH-SY5Y; assay: Cell cycle arrest in human SH-SY5Y assessed as accumulation at G2/M phase after 24 hrs by propidium iodide staining based flow cytometry; assay type: functional
[32] = test system: SH-SY5Y; assay: Cell cycle arrest in human SH-SY5Y assessed as accumulation at S phase at 2.5 uM after 24 hrs by propidium iodide staining based flow cytometry (reference value: 21.34%); assay type: functional
[33] = test system: SH-SY5Y; assay: Induction of apoptosis in human SH-SY5Y cells assessed as viable cells at 1.25 uM after 24 hrs by Annexin V-FITC/propidium iodide staining based flow cytometry (reference value: 88.2%); assay type: functional; details: read-out: Activity
[34] = test system: SH-SY5Y; assay: Induction of apoptosis in human SH-SY5Y cells assessed as reduction in mitochondrial membrane potential at 5 uM after 24 hrs by JC-1 staining based flow cytometry (reference value: 5.1%); assay type: functional; set-up: scale not given: the % may be the effect or the level left
[35] = test system: SH-SY5Y; assay: Induction of apoptosis in human SH-SY5Y cells assessed as early apoptotic cells at 5 uM after 24 hrs by Annexin V-FITC/propidium iodide staining based flow cytometry (reference value: 3.3%); assay type: functional
[36] = test system: SH-SY5Y; assay: Induction of apoptosis in human SH-SY5Y cells assessed as early apoptotic cells at 2.5 uM after 24 hrs by Annexin V-FITC/propidium iodide staining based flow cytometry (reference value: 3.3%); assay type: functional
[37] = test system: SH-SY5Y; assay: Induction of apoptosis in human SH-SY5Y cells assessed as late apoptotic cells at 5 uM after 24 hrs by Annexin V-FITC/propidium iodide staining based flow cytometry (reference value: 5.7%); assay type: functional
[38] = test system: SH-SY5Y; assay: Induction of apoptosis in human SH-SY5Y cells assessed as viable cells at 5 uM after 24 hrs by Annexin V-FITC/propidium iodide staining based flow cytometry (reference value: 88.2%); assay type: functional; details: read-out: Activity
[39] = test system: SH-SY5Y; assay: Induction of apoptosis in human SH-SY5Y cells assessed as late apoptotic cells at 20 uM after 24 hrs by Annexin V-FITC/propidium iodide staining based flow cytometry (reference value: 5.7%); assay type: functional
[40] = test system: SH-SY5Y; assay: Cell cycle arrest in human SH-SY5Y assessed as accumulation at G0/G1 phase at 2.5 uM after 24 hrs by propidium iodide staining based flow cytometry (reference value: 61.80%); assay type: functional
[41] = test system: SH-SY5Y; assay: Cell cycle arrest in human SH-SY5Y assessed as accumulation at G2/M phase at 2.5 uM after 24 hrs by propidium iodide staining based flow cytometry (reference value: 14.53%); assay type: functional

C[C@]12CC[C@H](OC(=O)Cn3cc(CN4C(=O)C(=O)c5c(Cl)ccc(Cl)c54)nn3)CC1=CC[C@@H]1[C@@H]2CC[C@]2(C)C(=O)CC[C@@H]12
IC50 [1]: 32.2 µM
Activity [2]: 9%
Activity [3]: 6.4%
viability at 2.5 µM [4]: 81.4%
Activity [5]: 59.7%
IC50 [6]: 20.8 µM
IC50 [7]: 3.18 µM
Activity [8]: 0.8%
Activity [9]: 21.31%
Activity [10]: Dose-dependent effect
viability at 10 µM [11]: 0.8%
Activity [12]: 12.48%
IC50 [13]: 4.06 µM
Activity [14]: 1.6%
Activity [15]: 0.5%
Activity [16]: 40.1%
Activity [17]: Dose-dependent effect
Activity [18]: 39%
Activity [19]: 50.31%
Activity [20]: 52.33%
Activity [21]: 32.6%
Activity [22]: 6.1%
IC50 [23]: 5.95 µM
viability at 20 µM [24]: 1%
IC50 [25]: 9.57 µM
Activity [26]: 5.3%
Activity [27]: 7.4%
Activity [28]: 8.4%
Activity [29]: 24.78%
Activity [30]: 27.74%
Activity [31]: Dose-dependent effect
Activity [32]: 23.48%
viability at 1.25 µM [33]: 80.3%
Activity [34]: 29.8%
Activity [35]: 18.9%
Activity [36]: 10.6%
Activity [37]: 41.4%
viability at 5 µM [38]: 32.4%
Activity [39]: 65.7%
Activity [40]: 45.36%
Activity [41]: 23.88%
